Test results: patent publication US10085998B2, “Salts of potassium ATP channel openers and uses thereof” (Essentialis, Inc., priority 2006, dated 2018)
≈ marks a conversion by molar mass, not a printed value. Counter-ions that a name gives are not always drawn. Like-named read-outs stand apart in the source and are kept apart here.

How the values were obtained:
[1] = Excipient compatibility study for diazoxide choline salt; assay type: physicochemical; conditions: excipient 100 mg + diazoxide choline salt 100 mg
[2] = Moisture sorption analysis; assay type: physicochemical; conditions: for Moisture sorption: hygroscopicity: relative humidity scan; for XRPD pattern following the moisture sorption/desorption analysis: after moisture sorption experiment; for Hysteresis upon desorption / hydrate formation: desorption scan
Method: Moisture Sorption Analysis was performed with a Hiden IGAsorp Moisture Sorption Instrument. Samples were first dried at 0% relative humidity at 25° C. until an equilibrium weight was reached, or for a maximum of 4 hours. Samples were then subjected to an isothermal (25° C.) scan from 10-90% relative humidity in steps of 10%. The samples were allowed to equilibrate to an asymptotic weight at each point for a maximum of 4 hours. Following absorption, a desorption scan from 85% relative humidity (at 25° C.) was run in steps of −10%, again allowing a maximum of 4 hours for the samples to equilibrate. The resulting samples after desorption were dried at 80° C. for two hours and analyzed by XRPD.

[3] = Slurry studies (inter-conversion of the solid form)
Method: Slurry experiments were performed on each form to determine propensity for conversion and to see if a unique form could be generated.

[4] = Solubility measurements at pH 2, 7 and 12 in phosphate buffer; conditions: solids after solubility analysis (choline salt: pH 2 and 7 only)
Method: (§1) Solubility concentrations were determined using area-percent calculations with HPLC calibration curves.

[5] = Form conversion and degradation under thermal stress
Method: Studies were also conducted to evaluate the likelihood for conversion and degradation under thermal stress.

[6] = all physiological relevant pH values from pH 2.0 to pH 8.5; deionized water, buffered aqueous solutions
Method: UV spectroscopy was performed with a Perkin-Elmer Lambda 25 spectrometer. Samples were dissolved in acetonitrile, water and a buffer system having a pH between 5.6 and 10. Spectra were acquired between 340 and 190 nm, using a 1 cm path length with background correction.

[7] = pH 2
Method: as §1

[8] = Additional solubility studies in 100 mM phosphate buffer (HPLC); assay type: physicochemical; conditions: pH 7.3, aqueous buffer, thermodynamic from solid, pH 7.30, pH after 18 h slurry 7.31, ambient temperature
Method: Each determination was carried out in duplicate, slurrying each sample in a 100 mM phosphate buffer solution, pH 7.00. […] After this time all samples were centrifuged, and the supernatant was diluted with mobile phase (MeCN/Water.).

[9] = Solubility screen of diazoxide potassium salt in various solvents; assay type: physicochemical
Source text: Solvents affording poor to fair solubility were used as antisolvents in binary/ternary crystallizations as well as slurry studies. Table 29 summarizes the results of the solubility screen.

[10] = Crystallization screening for polymorphic forms (single/binary solvent, fast/slow cooling, XRPD); assay type: physicochemical
physchem = conditions: thermodynamic from solid
Method: as §1

[11] = n-heptane, dichloromethane (CH2Cl2) and toluene, 7 and 14 days
[12] = 60° C., closed, protected from light, 7 and 14 days
[13] = 25° C., listed as Choline diazoxide salt
[14] = 25° C., listed as Potassium diazoxide salt

## CC1=Nc2ccc(Cl)cc2S(=O)(=O)N1 [Diazoxide Control]
[1]; one-month storage 40° C./75% RH
  1 Month 40° C./75% RH % (w/w): 99.0 % (w/w)
[1]; one-month storage 50° C.
  1 Month 50° C. % (w/w): 99.4 % (w/w)

## CC1=Nc2ccc(Cl)cc2S(=O)(=O)[N-]1.C[N+](C)(C)CCO [Form B]
[2]; 25° C.
  Moisture sorption: hygroscopicity: Hygroscopic - deliquesced
  Water absorbed at 60% RH: 7.4 wt %
[2]
  XRPD pattern following the moisture sorption/desorption analysis: remained in the Form B crystal structure
[3]; [11]
  Slurry study: conversion of solid form: form conversion was not observed
[4]
  XRPD pattern of the solids obtained after the solubility analysis: Form B of the choline salt of diazoxide was still present
[5]; [12]
  Form conversion and degradation under thermal stress (XRPD, DSC): Stable after 14 days at

## CC1=Nc2ccc(Cl)cc2S(=O)(=O)[N-]1.C[N+](C)(C)CCO [choline salt of diazoxide]
[2]; 25° C.
  Hysteresis upon desorption / hydrate formation: does not form a stable hydrate
  Moisture sorption: hygroscopicity: hygroscopic
[2]; [13]
  Hysteresis upon desorption / hydrate formation: no hysteresis
  Moisture sorption: hygroscopicity: deliquescent -
[2]; 25° C., 80% RH
  Water absorbed at 80% RH: over 28 wt %
[2]
  XRPD pattern following the moisture sorption/desorption analysis: changed to an alternate crystalline form
[3]; n-heptane, dichloromethane (CH2Cl2) and toluene, 7 and 14 days, listed as Choline diazoxide salt
  Slurry study: conversion of solid form: no propensity of inter-conversion
[6]
  Fate of the salt in aqueous medium (UV/Vis absorbance): hydrolyzes to the free base of diazoxide and choline hydroxide
[7]
  XRPD pattern of the solids obtained after the solubility analysis: changed back to the free form diazoxide material
[5]
  Degradation by HPLC after thermal stress: did not show any significant degradation
  Form conversion and degradation under thermal stress (XRPD, DSC): consistent with the starting material, as well as the presence of additional unique peaks

## CC1=NS(=O)(=O)c2cc(Cl)ccc2N1 [free form diazoxide, 7-chloro-3-methyl-2H-1,2,4-benzothiadiazine 1, 1 dioxide, reference compound]
[8]
  solubility at 18 h: 0.07 mg/mL (≈ 303 µM)
[2]; 25° C.
  Hysteresis upon desorption / hydrate formation: does not form a stable hydrate
  Moisture sorption: hygroscopicity: non-hygroscopic
  Water absorbed at 60% RH: approximately 0.04 wt %
  Water absorbed at 90% RH: ~0.20 wt %
[2]; 25° C., listed as Free form
  Hysteresis upon desorption / hydrate formation: no hysteresis
[2]
  XRPD pattern following the moisture sorption/desorption analysis: same crystalline form
[3]; room temperature, no light, water, isopropyl alcohol, dichloromethane and toluene, 14 days
  Slurry study: conversion of solid form: did not convert to alternate crystal forms
[5]; [12]
  Form conversion and degradation under thermal stress (XRPD, DSC): no conversion or degradation

## CC1=NS(=O)(=O)c2cc(Cl)ccc2N1 [potassium salt of diazoxide]
[2]; 25° C.
  Hysteresis upon desorption / hydrate formation: hemihydrate from 0-30% RH and a monohydrate from 35-75% RH
  Moisture sorption: hygroscopicity: hygroscopic
  Water absorbed at 60% RH: 5.4 wt %
  Water absorbed at 90% RH: 38.3 wt %
[2]; [14]
  Hysteresis upon desorption / hydrate formation: hemi/monohydrate
  Moisture sorption: hygroscopicity: deliquescent -
[2]
  XRPD pattern following the moisture sorption/desorption analysis: changed to an alternate crystalline form
[9]; solvent Acetone, 55 ° C., 1.6 mg in 4.00 mL
  Conc.: 400 µg/mL
[9]; solvent Acetone, 55 ° C., at 0.40 mg/mL
  Soluble: Yes
[9]; solvent CH2Cl2, 55 ° C., 1.3 mg in 5.00 mL
  Conc.: 260 µg/mL
[9]; solvent CH2Cl2, 55 ° C., at […]
  Soluble: No
[9]; solvent DMF, rt, 1.6 mg in 0.25 mL
  Conc.: >6400 µg/mL
[9]; solvent DMF, rt, at >6.40 mg/mL
  Soluble: Yes
[9]; solvent Dioxane, 55 ° C., 1.4 mg in 5.00 mL
  Conc.: 280 µg/mL
[9]; solvent Dioxane, 55 ° C., at […]
  Soluble: No
[9]; solvent EtOAc, 55 ° C., 1.8 mg in 5.00 mL
  Conc.: 360 µg/mL
[9]; solvent EtOAc, 55 ° C., at […]
  Soluble: No
[9]; solvent EtOH, 55 ° C., 2.2 mg in 0.75 mL
  Conc.: 2930 µg/mL
[9]; solvent EtOH, 55 ° C., at […]
  Soluble: Yes
[9]; solvent Heptane, 55 ° C., 1.2 mg in 5.00 mL
  Conc.: 240 µg/mL
[9]; solvent Heptane, 55 ° C., at 0.24 mg/mL
  Soluble: No
[9]; solvent IPA, 55 ° C., 2.1 mg in 1.00 mL
  Conc.: 2100 µg/mL
[9]; solvent IPA, 55 ° C., at […]
  Soluble: Yes
[9]; solvent IPAc, 55 ° C., 1.7 mg in 5.00 mL
  Conc.: 340 µg/mL
[9]; solvent IPAc, 55 ° C., at […]
  Soluble: No
[9]; solvent MEK, 55 ° C., 1.5 mg in 5.00 mL
  Conc.: 300 µg/mL
[9]; solvent MEK, 55 ° C., at 0.30 mg/mL
  Soluble: Partially
[9]; solvent MTBE, 55 ° C., 1.8 mg in 5.00 mL
  Conc.: 360 µg/mL
[9]; solvent MTBE, 55 ° C., at […]
  Soluble: No
[9]; solvent MeCN, 55 ° C., 1.7 mg in 2.00 mL
  Conc.: 850 µg/mL
[9]; solvent MeCN, 55 ° C., at 0.85 mg/mL
  Soluble: Yes
[9]; solvent MeOH, 55 ° C., 1.5 mg in 0.25 mL
  Conc.: 6000 µg/mL
[9]; solvent MeOH, 55 ° C., at 6.00 mg/mL
  Soluble: Yes
[9]; solvent THF, 55 ° C., 1.8 mg in 5.00 mL
  Conc.: 360 µg/mL
[9]; solvent THF, 55 ° C., at […]
  Soluble: Partially
[9]; solvent Toluene, 55 ° C., 1.4 mg in 5.00 mL
  Conc.: 280 µg/mL
[9]; solvent Toluene, 55 ° C., at […]
  Soluble: No
[9]; solvent Water, 55 ° C., 1.5 mg in 5.00 mL
  Conc.: 300 µg/mL
[9]; solvent Water, 55 ° C., at 0.30 mg/mL
  Soluble: No
[9]; solvent c-Hexane, 55 ° C., 1.5 mg in 5.00 mL
  Conc.: 300 µg/mL
[9]; solvent c-Hexane, 55 ° C., at 0.30 mg/mL
  Soluble: No
[3]; [11]
  Slurry study: conversion of solid form: no propensity of inter-conversion
[3]; n-heptane, dichloromethane, toluene, gradient area percent assay
  Degradation by HPLC after slurry study: did not show any significant degradation
[7]
  XRPD pattern of the solids obtained after the solubility analysis: changed back to the free form diazoxide material
[5]; 60° C., 14 days, gradient area percent assay
  Degradation by HPLC after thermal stress: did not show any significant degradation
[5]; [12]
  Form conversion and degradation under thermal stress (XRPD, DSC): showed unique peaks
[10]; XRPD, single-solvent, fast-cooling, MeCN, 42.40 mg/mL, 80 ° C.
  Form: C +
[10]; binary-solvent, fast-cooling, McCN 0.6 mL (dissolved at 80° C.), anti-solvent CH2Cl2 1.0 mL
  Precipitate: Yes
[10]; binary-solvent, fast-cooling, McCN 0.6 mL (dissolved at 80° C.), anti-solvent Dioxane 6.0 mL
  Precipitate: Yes
[10]; binary-solvent, fast-cooling, McCN 0.6 mL (dissolved at 80° C.), anti-solvent EtOAc 6.0 mL
  Precipitate: Yes
[10]; binary-solvent, fast-cooling, McCN 0.6 mL (dissolved at 80° C.), anti-solvent Heptane 2.0 mL
  Precipitate: Yes
[10]; binary-solvent, fast-cooling, McCN 0.6 mL (dissolved at 80° C.), anti-solvent IPAc 3.0 mL
  Precipitate: Yes
[10]; binary-solvent, fast-cooling, McCN 0.6 mL (dissolved at 80° C.), anti-solvent MTBE 1.0 mL
  Precipitate: Yes
[10]; binary-solvent, fast-cooling, McCN 0.6 mL (dissolved at 80° C.), anti-solvent THF 6.0 mL
  Precipitate: No/Evap.
[10]; binary-solvent, fast-cooling, McCN 0.6 mL (dissolved at 80° C.), anti-solvent Toluene 1.0 mL
  Precipitate: Yes
[10]; binary-solvent, fast-cooling, McCN 0.6 mL (dissolved at 80° C.), anti-solvent c-Hexane 2.0 mL
  Precipitate: Yes
[10]; single-solvent, fast-cooling, Acetone, 10.35 mg/mL, 55 ° C.
  Precipitate: No/Evap
[10]; single-solvent, fast-cooling, EtOAc, 3.52 mg/mL, 75 ° C.
  Precipitate: Yes
[10]; single-solvent, fast-cooling, IPA, 75.67 mg/mL, 62 ° C.
  Precipitate: Yes
[10]; single-solvent, fast-cooling, MeCN, 42.40 mg/mL, 80 ° C.
  Precipitate: Yes
[10]; single-solvent, fast-cooling, Water, 13.73 mg/mL, 95 ° C.
  Precipitate: Yes
[10]; single-solvent, fast-cooling, i-AmOH, 65.67 mg/mL, 73 ° C.
  Precipitate: Yes
[10]; single-solvent, fast-cooling, t-AmOH, 8.76 mg/mL, 95 ° C.
  Precipitate: Yes
[10]; single-solvent, slow-cooling, IPA, 71.67 mg/mL, 80 ° C.
  Precipitate: No/Evap
[10]; single-solvent, slow-cooling, MeCN, 45.60 mg/mL, 80 ° C.
  Precipitate: Yes
[10]; single-solvent, slow-cooling, i-AmOH, 68.67 mg/mL, 80 ° C.
  Precipitate: Yes
physchem; pH 2, aqueous buffer
  solubility: 9.9 mg/mL
physchem; pH 7, aqueous buffer
  solubility: 14.4 mg/mL
physchem; pH 12, aqueous buffer
  solubility: 43 mg/mL
